Tested on: C57BL/6 mice
Experiment: In vivo acute toxicity assay, substance given alone (serum biochemistry, kidney histology)
Procedure: Animals. A total of 48 male C57BL/6 mice weighing 25-30 g purchased from the Instituto de Salud Pública (ISP), were used. Animal housing and experiment protocols were approved by the University of Talca in adherence to Conicyt experimental animal administrative regulations. All groups were maintained at a constant temperature (22±1° C.) on a 12-h light/12-h dark cycle (lights-on at 08:00 a.m.) and had free access to food and water.
Animal experimental design. […] Animals were euthanized 48 h later and blood samples were collected from the heart for the assessment of serum urea, creatinine, Lactate Deshidrogenase (LDH), Uric Acid and Calcium
Examination of nephrotoxicity. Mice were anaesthetized with sodium pentobarbitone and blood samples were collected from the heart and the kidneys were removed. Serum levels of urea, creatinine, LDH, Uric Acid and Calcium were determined using commercially available kits according to the protocols provided by Valtek (Valtek Diagnostic, Nuñoa, Chile). Left kidneys were fixed in 10% neutral buffered formaldehyde, embedded in paraffin wax and automatically processed. Sections (3 μm in thickness) of the embedded tissue were stained with hematoxylin-eosin for observation under light microscope.
Statistical analysis. The in vitro data were obtained from at least three independent experiments with three replicates, and all data are expressed as mean±SD. Experimental groups were compared using a one-way analysis of variance (ANOVA) followed by Scheffé's test when the data were normally distributed and by the Kruskal-Wallis test when they were not normally distributed. p-Values <0.05 were considered significant. Statistical tests were performed using GraphPad Prism 5 software, version 5.0 for Mac OS X.

[1] = substance alone ip (UO2 5 mg/kg of uranium; G4-Lys-Fmoc-Cbz 16 mg/kg; G5-Cou 40 mg/kg; EDTA 75 mg/kg), serum 48 h

Work on `CC(=O)O.CC(=O)O.O.O.[O]=[U]=[O]` [UO2^−, UO2(CH3COO)2.2H2O] yielded a concentration of creatinine (UO2 alone, 5 mg/kg of uranium ip, serum 48 h) of 1.7±0.5, a Calcium [1] of 8.8 ± 0.57 mg/dL and a Urea [1] of 226.3 ± 39.4 mg/dL. For the same molecule, the “Uric Acid” value [1] was 2.5 ± 0.39 mg/dL, the “kidney histology (hematoxylin-eosin)” value (substance alone ip, 48 h) was “irreversible damage with necrosis” and the “LDH (wide spectre toxicity indicator)” value (substance alone ip, serum 48 h) was “induced a significant increase of the enzyme”.

Reference: patent publication US20150148415A1, “DERIVATIZED DENDRIMER WITH LOW CITOTOXICITY FOR IN VIVO, EX VIVO, IN VITRO OR IN SITU CHELATION OF HEAVY METALS OR ACTINIDES” (priority 2013, published 2015)
